Data from ChEMBL document CHEMBL1201862, “PubChem BioAssay data set” (2004).
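Compound exposure: 48 hours, 5 concentrations, 96-well plates. Abbreviation: GI50, concentration required for 50% inhibition of growth.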 Calls of active or inactive are those of the source. No stated cut-off is given here; in the data, active = GI50 up to about 1.1 µM and inactive = higher.

Legend:
Assay in all cases: NCI tumour cell line growth inhibition, 48 h
RPMI-8226 = test system: RPMI-8226
OVCAR-3 = test system: OVCAR-3
NCI-H522 = test system: NCI-H522
NCI-H23 = test system: NCI-H23
MOLT-4 = test system: MOLT-4
NCI/ADR-RES = test system: NCI/ADR-RES
HL-60 = test system: HL-60
NCI-H460 = test system: NCI-H460
SF-295 = test system: SF-295
786-0 = test system: 786-0
SNB-19 = test system: SNB-19
DU-145 = test system: DU-145
HCT-15 = test system: HCT-15
KM12 = test system: KM12
IGROV-1 = test system: IGROV-1
UO-31 = test system: UO-31
BT-549 = test system: BT-549
RXF 393 = test system: RXF 393
HOP-62 = test system: HOP-62
UACC-62 = test system: UACC-62

SMILES	GI50 (RPMI-8226)	GI50 (OVCAR-3)	GI50 (NCI-H522)	GI50 (NCI-H23)	GI50 (MOLT-4)	GI50 (NCI/ADR-RES)	GI50 (HL-60)	GI50 (NCI-H460)	GI50 (SF-295)	GI50 (786-0)	GI50 (SNB-19)	GI50 (DU-145)	GI50 (HCT-15) [µM]	GI50 (KM12)	GI50 (IGROV-1)	GI50 (UO-31)	GI50 (BT-549)	GI50 (RXF 393)	GI50 (HOP-62)	GI50 (UACC-62)
CC(=O)O[C@H]1CC[C@H]2[C@@H]3CCc4cc(O)c(I)cc4[C@H]3CC[C@]12C	12.4 µM (inactive)	16.6 µM (inactive)	11.8 µM (inactive)	12.5 µM (inactive)	4.73 µM (inactive)	17.6 µM (inactive)	5.21 µM (inactive)	12.9 µM (inactive)	15.3 µM (inactive)	14.1 µM (inactive)	15.8 µM (inactive)	14.8 µM (inactive)	10.5	12 µM (inactive)	16.9 µM (inactive)	14 µM (inactive)	14.8 µM (inactive)			
CC1(CCC(=O)OC2CCCCC2)OCCO1	> 100 µM (inactive)	> 100 µM (inactive)	> 100 µM (inactive)	> 100 µM (inactive)	> 100 µM (inactive)	> 100 µM (inactive)	> 100 µM (inactive)	> 100 µM (inactive)	> 100 µM (inactive)	> 100 µM (inactive)	> 100 µM (inactive)	> 100 µM (inactive)	> 100	> 100 µM (inactive)	> 100 µM (inactive)	> 100 µM (inactive)		> 100 µM (inactive)	> 100 µM (inactive)	> 100 µM (inactive)
Cc1nc2nn(C)cc2c(=O)n1/N=C/c1ccccc1	> 100 µM (inactive)	> 100 µM (inactive)	> 100 µM (inactive)	> 100 µM (inactive)	> 100 µM (inactive)		> 100 µM (inactive)	> 100 µM (inactive)	> 100 µM (inactive)	> 100 µM (inactive)	> 100 µM (inactive)		> 100	> 100 µM (inactive)	> 100 µM (inactive)	> 100 µM (inactive)		> 100 µM (inactive)	> 100 µM (inactive)	> 100 µM (inactive)
Cc1cc2c(cc1C)[n+]([O-])c(C(=O)CC(=O)C(=O)Nc1ccccc1C)c(C)[n+]2[O-]	> 100 µM (inactive)	> 100 µM (inactive)	54 µM (inactive)	> 100 µM (inactive)	> 100 µM (inactive)		62.8 µM (inactive)	80.5 µM (inactive)	> 100 µM (inactive)	> 100 µM (inactive)	> 100 µM (inactive)		> 100	> 100 µM (inactive)	> 100 µM (inactive)	96.6 µM (inactive)		> 100 µM (inactive)	> 100 µM (inactive)	> 100 µM (inactive)
O=C1C[C@@H]2[C@@H](CCC23CCCC3)N1	> 100 µM (inactive)	> 100 µM (inactive)	> 100 µM (inactive)	> 100 µM (inactive)	> 100 µM (inactive)		> 100 µM (inactive)	> 100 µM (inactive)	> 100 µM (inactive)	> 100 µM (inactive)	> 100 µM (inactive)		> 100	> 100 µM (inactive)	> 100 µM (inactive)	> 100 µM (inactive)		> 100 µM (inactive)	> 100 µM (inactive)	> 100 µM (inactive)
Nc1nc2c(ncn2CC2CCC(CO)C2)c(=O)[nH]1 (configuration not stated)	> 100 µM (inactive)	> 100 µM (inactive)				> 100 µM (inactive)			> 100 µM (inactive)	> 100 µM (inactive)	> 100 µM (inactive)	> 100 µM (inactive)	> 100	> 100 µM (inactive)		> 100 µM (inactive)		> 100 µM (inactive)	> 100 µM (inactive)	29.2 µM (inactive)
CSC(SC)=C(C#N)C(=O)Nc1ccc(C)cc1	42.2 µM (inactive)	> 100 µM (inactive)	28.9 µM (inactive)	> 100 µM (inactive)	95.5 µM (inactive)		37.2 µM (inactive)	> 100 µM (inactive)	> 100 µM (inactive)	> 100 µM (inactive)	> 100 µM (inactive)	> 100 µM (inactive)	> 100	> 100 µM (inactive)	61.4 µM (inactive)	61 µM (inactive)	> 100 µM (inactive)	> 100 µM (inactive)	> 100 µM (inactive)	94.4 µM (inactive)
Cc1nc2c(sc3nc4c(cc32)CCC4)c(=O)o1	48.9 µM (inactive)	37.8 µM (inactive)	31 µM (inactive)	67.9 µM (inactive)	41.9 µM (inactive)	> 56.1 µM (inactive)	49.9 µM (inactive)	> 59.8 µM (inactive)	> 100 µM (inactive)	> 72.4 µM (inactive)	> 53.2 µM (inactive)	> 100 µM (inactive)	34.4	> 87.1 µM (inactive)	20.6 µM (inactive)	> 56.1 µM (inactive)		> 100 µM (inactive)	> 100 µM (inactive)	> 100 µM (inactive)
CC(C)Oc1ccc(CNC2=NCCO2)c2ccccc12	9.77 µM (inactive)			14.6 µM (inactive)	4.85 µM (inactive)	12.3 µM (inactive)	8.63 µM (inactive)	12.4 µM (inactive)	13.7 µM (inactive)	13.6 µM (inactive)	7.74 µM (inactive)	18.2 µM (inactive)	15.6	18.1 µM (inactive)	12.6 µM (inactive)	5.24 µM (inactive)		13.8 µM (inactive)	15.6 µM (inactive)	15.3 µM (inactive)
CC1=C(Cl)C[C@@H](/C(C)=C\Cl)O[C@@]1(O)C(Br)Br	18.2 µM (inactive)	17.5 µM (inactive)	18.9 µM (inactive)	41.9 µM (inactive)	15.6 µM (inactive)		6.92 µM (inactive)	41.1 µM (inactive)	> 100 µM (inactive)	33.7 µM (inactive)	> 100 µM (inactive)	19.9 µM (inactive)	16.8	54.1 µM (inactive)	34.3 µM (inactive)	25.3 µM (inactive)	28.4 µM (inactive)	19.2 µM (inactive)	> 100 µM (inactive)	45.2 µM (inactive)
CC1=C(C)CC(C#N)(C#N)C(C#N)(C#N)C1	2.18 µM (inactive)	> 5.52 µM (inactive)	1 µM (active)	> 4.37 µM (inactive)	2.51 µM (inactive)	> 10 µM (inactive)	1.47 µM (inactive)	> 10 µM (inactive)	> 10 µM (inactive)	> 4.94 µM (inactive)	> 10 µM (inactive)	> 10 µM (inactive)	> 10	> 10 µM (inactive)	> 3.83 µM (inactive)	> 10 µM (inactive)		> 4.39 µM (inactive)	> 10 µM (inactive)	> 6.58 µM (inactive)
COc1ccc(C(O)CC(O)(C(F)(F)F)C(F)(F)F)cc1 (configuration not stated)	14.4 µM (inactive)	22.2 µM (inactive)	32.1 µM (inactive)	19.5 µM (inactive)	23.9 µM (inactive)	19.4 µM (inactive)	18.7 µM (inactive)	27.4 µM (inactive)	29.6 µM (inactive)	32.4 µM (inactive)	24.9 µM (inactive)	47 µM (inactive)	34.8	51.3 µM (inactive)	26.8 µM (inactive)	39.8 µM (inactive)		20.1 µM (inactive)	26.4 µM (inactive)	22.8 µM (inactive)
O1C2C1C1OC1C1OC1C1OC21 (configuration not stated)			> 100 µM (inactive)	> 100 µM (inactive)	> 100 µM (inactive)	> 100 µM (inactive)			> 100 µM (inactive)	> 100 µM (inactive)	> 100 µM (inactive)	> 100 µM (inactive)	> 100	> 100 µM (inactive)		> 100 µM (inactive)	> 100 µM (inactive)		> 100 µM (inactive)	> 100 µM (inactive)
COC(=O)c1cc2c(cc1O)[C@@H](NC(C)=O)CCc1cc(OC)c(OC)c(OC)c1-2	0.0668 µM (active)	0.0518 µM (active)	0.0222 µM (active)	0.0296 µM (active)	0.0796 µM (active)	0.114 µM (active)		0.0528 µM (active)	0.0385 µM (active)	0.0328 µM (active)	0.101 µM (active)	0.064 µM (active)	0.0461	0.0283 µM (active)	0.0627 µM (active)	0.445 µM (active)			0.0946 µM (active)	0.0692 µM (active)
CN(C)c1cccc(-c2cc(O)c3cc4c(cc3n2)OCO4)c1	0.473 µM (active)	0.0807 µM (active)	0.0505 µM (active)	0.326 µM (active)	0.3 µM (active)		0.112 µM (active)	0.278 µM (active)	0.136 µM (active)	0.262 µM (active)	0.365 µM (active)		0.285	0.0456 µM (active)	0.625 µM (active)	0.667 µM (active)		0.241 µM (active)	0.274 µM (active)	0.136 µM (active)
O=C1c2ccccc2C(=O)c2c(O)ccc(O)c21 [QUINIZARIN]	91 µM (inactive)	29.2 µM (inactive)	> 100 µM (inactive)	> 100 µM (inactive)	52 µM (inactive)		> 100 µM (inactive)	40.8 µM (inactive)	> 100 µM (inactive)	> 100 µM (inactive)	> 100 µM (inactive)		> 100	60.5 µM (inactive)	> 100 µM (inactive)	59 µM (inactive)		> 100 µM (inactive)	> 100 µM (inactive)	> 100 µM (inactive)
